Measurements taken from patent US20240368109A1, “ALLOSTERIC MODULATORS OF NICOTINIC ACETYLCHOLINE RECEPTORS” (MERCK SHARP & DOHME LLC, priority 2021, published 2024).

Molecular target: human α7 nAChR (Homo sapiens (Human), UniProt P36544)
Assay: Automated patch-clamp electrophysiology functional assay (Assay A)
Format: cell-based
Details: IonFlux HT whole-cell population patch, HEK cells expressing human α7/RIC-3, 40 μM acetylcholine
Method: The α7 nAChR positive allosteric modulator (PAM) activity of the present compounds may be tested using assays known in the art. The α7 nAChR PAMs described herein have activities in an automated patch-clamp electrophysiology functional assay as described in the examples. The assay was performed using the IonFlux HT in a whole-cell, population patch configuration. See Golden et al. Assay Drug Dev. Technol. (2011) 9:608-619. The compounds were assessed for their ability to modulate the function of the human α7 nAChR stably expressed in a HEK cell line both in the presence, and in the absence of the natural α7 agonist acetylcholine. By performing a series of such measurements at different concentrations, the effective concentration of the α7 nAChR PAMs (EC50) was determined. See Spencer et al. Assay Drug Dev. Technol. (2012) 10:313-324.
Direct activation of α7 (agonism), and potentiation of acetylcholine-evoked α7 currents was determined as follows:
Automated Patch-Clamp Electrophysiology Functional Assay (Assay A)
Automated patch-clamp electrophysiology was performed using the IonFluxHT (Fluxion Biosciences Inc., San Francisco, CA) in the whole-cell, population patch configuration. Test compounds were assessed for their ability to modulate the function of the α7 nicotinic acetylcholine receptor both in the presence, and in the absence of the natural α7 agonist acetylcholine. A HEK cell line stably expressing both human RIC-3 and human α7 (PrecisION hnAChR α7/RIC-3, Eurofins Pharma, St. Charles, MO) was cultured in 175 cm^2 triple-layer tissue culture flasks to no more than 90% confluency in DMEM/F-12 growth media supplemented with 10% heat-inactivated fetal bovine serum, 1% non-essential amino acids, 0.625 μg/mL Puromycin, and 400 μg/mL Geneticin. Immediately prior to assay, cells were detached by first aspirating growth media, rinsing with Dulbecco's phosphate buffered saline, and then adding 10 mL of Accutase (Innovative Cell Technologies, San Diego, CA) to the flask and then incubating at 37° C. for 5 minutes. Detached cells were then recovered by the addition of 40 mL of CHO-serum-free media supplemented with 25 mM HEPES, and rocked gently in a 50 mL conical tube for 20 minutes prior to patch-clamp assay. After recovery, cells were pelleted by centrifugation at 1,000 RPM for 1 minute in a compact bench top centrifuge; recovery media was aspirated and cells were resuspended in external recording solution (150 mM NaCl, 5 mM KCl, 2 mM CaCl2), 1 mM MgCl2, 10 mM HEPES, 12 mM dextrose) to a density of 5.0×10^6 cells/mL. The cell suspension was added to the cell inlet wells on an IonFlux HT population patch plate which had previously been rinsed and primed with deionized H2O. Test compounds were serially diluted in DMSO and then resuspended to the final test concentration in external recording solution, with, or without 40 μM acetylcholine added to the external recording solution; test compounds were then transferred to the IonFlux HT population patch plate. Internal recording solution (110 mM TrisPO4, 28 mM TrisBase, 0.1 mM CaCl2), 2 mM MgCl2, 11 mM EGTA, 4 mM MgATP) was added to the internal recording solution inlet wells on the IonFlux HT patch plate previously loaded with cells and test compounds, and the plate loaded into the IonFlux HT instrument. A protocol was executed on the IonFlux HT to trap the cells, break into the cells, and establish the whole-cell recording configuration; cells were voltage-clamped at a holding potential of −60 mV for the duration of the experiment, all experiments were conducted at room temperature, and the IonFlux HT injection pressure was 8 psi for solution applications. Upon establishing the whole-cell configuration, external recording solution was perfused into the recording chambers for 120 seconds and then 40 μM acetylcholine was applied for 1 second and immediately washed off with external recording solution for 60 seconds. […]

human α7 nAChR, sequence (P36544 23-502): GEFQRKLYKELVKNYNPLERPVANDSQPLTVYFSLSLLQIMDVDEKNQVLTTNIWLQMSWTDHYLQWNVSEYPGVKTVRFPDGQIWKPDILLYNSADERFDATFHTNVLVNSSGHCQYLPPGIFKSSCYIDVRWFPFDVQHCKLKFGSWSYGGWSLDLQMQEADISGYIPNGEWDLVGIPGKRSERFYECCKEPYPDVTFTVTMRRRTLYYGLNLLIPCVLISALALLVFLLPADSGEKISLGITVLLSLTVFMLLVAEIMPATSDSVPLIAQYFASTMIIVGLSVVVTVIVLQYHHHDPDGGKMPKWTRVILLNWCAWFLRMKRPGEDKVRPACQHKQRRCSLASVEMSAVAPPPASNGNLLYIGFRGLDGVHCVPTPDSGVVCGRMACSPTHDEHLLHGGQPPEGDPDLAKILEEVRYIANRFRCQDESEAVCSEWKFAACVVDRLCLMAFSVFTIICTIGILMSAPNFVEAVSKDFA

| EC50 (electrophysiology EC50 values) [µM] | EC50 (potency class) [µM] | SMILES |
| --- | --- | --- |
| 0.68 | 0.5 to 5 | O=C(NCc1ccc(O)cc1)C1C2Oc3ccc(F)cc3C21 (stereo not drawn) [Example C26, exo-5-fluoro-N-[(4-hydroxyphenyl)methyl]-1a,6b-dihydro-1H-cyclopropa[b][1]benzofuran-1-carboxamide] |
| 1.4 | 0.5 to 5 | CCOc1ccc([C@@H](NC(=O)C2C3Oc4ccc(F)cc4C32)C(F)F)cn1 (stereo partly drawn) [Example C5, exo-N-[(1R)-1-(6-ethoxypyridin-3-yl)-2,2-difluoroethyl]-5-fluoro-1a,6b-dihydro-1H-cyclopropa[b][1]benzofuran-1-carboxamide] |
| – | 0.5 to 5 | O=C(NCc1cc(-c2ccc(Cl)cc2)no1)C1C2Oc3ccc(F)cc3C21 (stereo not drawn) [Example C52, exo-N-{[3-(4-chlorophenyl)-1,2-oxazol-5-yl]methyl}-5-fluoro-1a,6b-dihydro-1H-cyclopropa[b][1]benzofuran-1-carboxamide] |
| 0.47 | 0.1 to 0.5 | CCOc1ccc([C@H](COC)NC(=O)C2C3Oc4ccccc4C32)cc1 (stereo partly drawn) [Example B3, exo-N-[(1R)-1-(4-ethoxyphenyl)-2-methoxyethyl]-1a,6b-dihydro-1H-cyclopropa[b][1]benzofuran-1-carboxamide] |
| 1.5 | 0.5 to 5 | CCOc1ccc([C@H](COC)NC(=O)C2C3Oc4ccccc4C32)cc1 (stereo partly drawn) [Example B2, exo-N-[(1R)-1-(4-ethoxyphenyl)-2-methoxyethyl]-1a,6b-dihydro-1H-cyclopropa[b][1]benzofuran-1-carboxamide] |
| 0.62 | 0.5 to 5 | CCOc1ccc(C2(NC(=O)C3C4COc5ccccc5C43)CCC2)cn1 (stereo not drawn) [Example A11, exo-N-[1-(6-ethoxypyridin-3-yl)cyclobutyl]-1,1a,2,7b-tetrahydrocyclopropa[c][1]benzopyran-1-carboxamide] |
| 0.76 | 0.5 to 5 | CCOc1ccc([C@H](COC)NC(=O)C2C3Cc4ccccc4C32)cc1 (single isomer, unassigned) [Example 1] |
| 0.072 | ≤ 0.1 | CCOc1ccc([C@H](COC)NC(=O)C2C3Cc4ccccc4C32)cc1 (single isomer, unassigned) [Example 2] |
| 2.8 | 0.5 to 5 | O=C(N[C@@H](CCO)c1ccc(F)cc1)C1C2Oc3ccc(F)cc3C21 (stereo partly drawn) [Example C30, exo-5-fluoro-N-[(1S)-1-(4-fluorophenyl)-3-hydroxypropyl]-1a,6b-dihydro-1H-cyclopropa[b][1]benzofuran-1-carboxamide] |
| 1.6 | 0.5 to 5 | O=C(N[C@H]1CCOc2cc(F)c(F)cc21)C1C2COc3ccccc3C21 (stereo partly drawn) [Example A19, exo-N-[(4S)-6,7-difluoro-3,4-dihydro-2H-1-benzopyran-4-yl]-1,1a,2,7b-tetrahydrocyclopropa[c][1]benzopyran-1-carboxamide] |
| 5.6 | 5 to 50 | O=C(NCc1ccc(Cl)c(F)c1)C1C2Oc3ccc(F)cc3C21 (stereo not drawn) [Example C15, exo-N-[(4-chloro-3-fluorophenyl)methyl]-5-fluoro-1a,6b-dihydro-1H-cyclopropa[b][1]benzofuran-1-carboxamide] |
| 4.1 | – | CCOc1ccc([C@H](COC)NC(=O)C2C3Oc4ccc(C#N)cc4C32)cc1 (stereo partly drawn) [Example B16, exo-5-cyano-N-[(1R)-1-(4-ethoxyphenyl)-2-methoxyethyl]-1a,6b-dihydro-1H-cyclopropa[b][1]benzofuran-1-carboxamide] |
| 0.28 | 0.1 to 0.5 | CCOc1ccc([C@H](COC)NC(=O)C2C3Oc4c(Br)cccc4C32)cc1 (stereo partly drawn) [Example B8, exo-3-bromo-N-[(1R)-1-(4-ethoxyphenyl)-2-methoxyethyl]-1a,6b-dihydro-1H-cyclopropa[b][1]benzofuran-1-carboxamide] |
| – | 0.5 to 5 | COc1cc([C@H](CF)NC(=O)C2C3COc4ccc(F)cc4C32)ccn1 (stereo partly drawn) [Example A16, exo-6-fluoro-N-[(1R)-2-fluoro-1-(2-methoxypyridin-4-yl)ethyl]-1,1a,2,7b-tetrahydrocyclopropa[c][1]benzopyran-1-carboxamide] |
| 0.57 | 0.5 to 5 | O=C(N[C@@H](C(F)F)C1CCCCC1)C1C2COc3ccccc3C21 (stereo partly drawn) [Example A20, exo-N-[(1R)-1-cyclohexyl-2,2-difluoroethyl]-1,1a,2,7b-tetrahydrocyclopropa[c][1]benzopyran-1-carboxamide] |
| 0.62 | 0.5 to 5 | O=C(NCc1ccccc1OCC1CC1)C1C2Oc3ccc(F)cc3C21 (stereo not drawn) [Example C40, exo-N-{[2-(cyclopropylmethoxy)phenyl]methyl}-5-fluoro-1a,6b-dihydro-1H-cyclopropa[b][1]benzofuran-1-carboxamide] |
| 1.1 | 0.5 to 5 | CCOc1ccc([C@@H](NC(=O)C2C3COc4ccc(F)cc4C32)C(F)(F)F)cn1 (stereo partly drawn) [Example A13, exo-N-[(1R)-1-(6-ethoxypyridin-3-yl)-2,2,2-trifluoroethyl]-6-fluoro-1,1a,2,7b-tetrahydrocyclopropa[c][1]benzopyran-1-carboxamide] |
| 0.48 | 0.1 to 0.5 | CCOc1ccc([C@H](COC)NC(=O)C2C3Oc4cc(Br)ccc4C32)cc1 (stereo partly drawn) [Example B15, exo-4-bromo-N-[(1R)-1-(4-ethoxyphenyl)-2-methoxyethyl]-1a,6b-dihydro-1H-cyclopropa[b][1]benzofuran-1-carboxamide] |
| 1.1 | 0.5 to 5 | O=C(N[C@@H](CO)C1CCCCC1)C1C2COc3ccccc3C21 (stereo partly drawn) [Example A6, exo-N-[(1R)-1-cyclohexyl-2-hydroxyethyl]-1,1a,2,7b-tetrahydrocyclopropa[c][1]benzopyran-1-carboxamide] |
| 1.1 | 0.5 to 5 | CCOc1ccc([C@@H](NC(=O)C2C3COc4ccc(F)cc4C32)C(F)F)cn1 (stereo partly drawn) [Example A14, exo-N-[(1R)-1-(6-ethoxypyridin-3-yl)-2,2-difluoroethyl]-6-fluoro-1,1a,2,7b-tetrahydrocyclopropa[c][1]benzopyran-1-carboxamide] |

| SMILES | EC50 (electrophysiology EC50 values) [µM] | EC50 (potency class) [µM] |
| --- | --- | --- |
| O=C(NCc1ccc2ncccc2c1)C1C2Oc3ccc(F)cc3C21 (stereo not drawn) [Example C27, 6-{[(exo-5-fluoro-1a,6b-dihydro-1H-cyclopropa[b][1]benzofuran-1-carbonyl)amino]methyl}quinoline] | 2 | 0.5 to 5 |
| C[C@H](NC(=O)C1C2Oc3ccc(F)cc3C21)c1cccc2ncccc12 (stereo partly drawn) [Example C36, 5-{(1S)-1-[(exo-5-fluoro-1a,6b-dihydro-1H-cyclopropa[b][1]benzofuran-1-carbonyl)amino]ethyl}quinoline] | 1.3 | 0.5 to 5 |
| O=C(NCCc1ccccc1)C1C2Oc3ccc(F)cc3C21 (stereo not drawn) [Example C11, exo-5-fluoro-N-(2-phenylethyl)-1a,6b-dihydro-1H-cyclopropa[b][1]benzofuran-1-carboxamide] | 2.2 | 0.5 to 5 |
| CCOc1ccc([C@H](COC)NC(=O)C2C3c4ccccc4N(C(C)=O)C23)cc1 (stereo partly drawn) [Example B12, exo-2-acetyl-N-[(1R)-1-(4-ethoxyphenyl)-2-methoxyethyl]-1,1a,2,6b-tetrahydrocyclopropa[b]indole-1-carboxamide] | 1.3 | 0.5 to 5 |
| O=C(NCc1ccc2cnccc2c1)C1C2Oc3ccc(F)cc3C21 (stereo not drawn) [Example C38, 6-{[(exo-5-fluoro-1a,6b-dihydro-1H-cyclopropa[b][1]benzofuran-1-carbonyl)amino]methyl}isoquinoline] | 4.7 | 0.5 to 5 |
